Test results reported in PubChem BioAssay (NCI).
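GI50 is the concentration that inhibits growth by half. At the TGI there is no net growth.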

Tests used:
Assay in all cases: inhibition of tumour cell growth, NCI panel, 384-well format
[1] = test system: OVCAR-3 ovarian
[2] = test system: IGROV1 ovarian
[3] = test system: TK-10 renal
[4] = test system: SF-268 CNS
[5] = test system: UO-31 renal
[6] = test system: SK-OV-3 ovarian
[7] = test system: HCT-15 colon
[8] = test system: NCI-H226 lung
[9] = test system: UACC-62 melanoma
[10] = test system: MDA-MB-468 breast
[11] = test system: SW-620 colon
[12] = test system: OVCAR-4 ovarian
[13] = test system: T-47D breast
[14] = test system: MALME-3M melanoma
[15] = test system: COLO 205 colon
[16] = test system: CAKI-1 renal
[17] = test system: SF-295 CNS
[18] = test system: M14 melanoma
[19] = test system: UACC-257 melanoma
[20] = test system: 786-0 renal
[21] = test system: HT29 colon
[22] = test system: A549 NSCLC
[23] = test system: LOX IMVI melanoma
[24] = test system: HOP-62 NSCLC
[25] = test system: HCC-2998 colon
[26] = test system: U251 glioblastoma
[27] = test system: BT-549 breast
[28] = test system: SR leukemia
[29] = test system: NCI/ADR-RES ovarian
[30] = test system: MDA-MB-435 melanoma
[31] = test system: NCI-H522 lung
[32] = test system: ACHN renal
[33] = test system: SK-MEL-28 melanoma
[34] = test system: SNB-75 CNS
[35] = test system: SK-MEL-5 melanoma
[36] = test system: OVCAR-5 ovarian
[37] = test system: DU-145 prostate
[38] = test system: HL-60(TB) leukemia
[39] = test system: RXF 393 renal
[40] = test system: NCI-H23 lung
[41] = test system: MDA-MB-231 breast
[42] = test system: RPMI-8226 leukemia
[43] = test system: SNB-19 CNS
[44] = test system: SN12C renal
[45] = test system: EKVX NSCLC
[46] = test system: NCI-H460 NSCLC
[47] = test system: K-562 leukemia
[48] = test system: PC-3 prostate
[49] = test system: OVCAR-8 ovarian
[50] = test system: HOP-92 NSCLC
[51] = test system: CCRF-CEM leukemia
[52] = test system: A498 renal
[53] = test system: KM12 colon
[54] = test system: HS 578T breast
[55] = test system: MCF7 breast
[56] = test system: NCI-H322M lung
[57] = test system: SF-539 CNS
[58] = test system: MOLT-4 leukemia

With `NCC(=O)Nc1ccc(-n2nc(C(F)(F)F)cc2-c2ccc3c(ccc4ccccc43)c2)cc1` the GI50 [1] was 1570 nM, the TGI [1] was 2920 nM and the GI50 [2] was 1090 nM. The TGI [2] was 2300 nM, the GI50 [3] was 1320 nM and the TGI [3] was 2610 nM. It also gave a GI50 [4] of 1050 nM, a TGI [4] of 2240 nM and a GI50 [5] of 1390 nM. The TGI [5] was 2740 nM, the GI50 [6] was 1570 nM and the TGI [6] was 2920 nM. The GI50 [7] was 82.1 nM, the TGI [7] was 1750 nM and the GI50 [8] was 1600 nM. It also gave a TGI [8] of 2960 nM, a GI50 [9] of 1230 nM and a TGI [9] of 2480 nM. It also gave a GI50 [10] of 1530 nM, a TGI [10] of 2870 nM and a GI50 [11] of 965 nM. For the same compound, the TGI [11] was 2160 nM, the GI50 [12] was 1620 nM and the TGI [12] was 2980 nM. It also gave a GI50 [13] of 1540 nM, a TGI [13] of 2880 nM and a GI50 [14] of 1160 nM. It also gave a TGI [14] of 2390 nM, a GI50 [15] of 535 nM and a TGI [15] of 1800 nM. It also gave a GI50 [16] of 1180 nM, a TGI [16] of 2430 nM and a GI50 [17] of 766 nM. For the same compound, the TGI [17] was 2040 nM, the GI50 [18] was 1270 nM and the TGI [18] was 2540 nM. It also gave a GI50 [19] of 1250 nM, a TGI [19] of 2510 nM and a GI50 [20] of 1020 nM. For the same compound, the TGI [20] was 2200 nM, the GI50 [21] was 1090 nM and the TGI [21] was 2290 nM. For the same compound, the GI50 [22] was 1040 nM, the TGI [22] was 2230 nM and the GI50 [23] was 396 nM. For the same compound, the TGI [23] was 1470 nM, the GI50 [24] was 1130 nM and the TGI [24] was 2360 nM. The GI50 [25] was 1060 nM, the TGI [25] was 2250 nM and the GI50 [26] was 1190 nM. It also gave a TGI [26] of 2460 nM, a GI50 [27] of 1330 nM and a TGI [27] of 2620 nM. The GI50 [28] was 30.6 nM, the TGI [28] was 104 nM and the GI50 [29] was 1070 nM. For the same compound, the TGI [29] was 2250 nM, the GI50 [30] was 1110 nM and the TGI [30] was 2330 nM. It also gave a GI50 [31] of 1070 nM, a TGI [31] of 2270 nM and a GI50 [32] of 1180 nM. It also gave a TGI [32] of 2430 nM, a GI50 [33] of 1120 nM and a TGI [33] of 2320 nM. It also gave a GI50 [34] of 1080 nM, a TGI [34] of 2290 nM and a GI50 [35] of 1120 nM. The TGI [35] was 2330 nM, the GI50 [36] was 1660 nM and the TGI [36] was 3040 nM. The GI50 [37] was 1310 nM, the TGI [37] was 2610 nM and the GI50 [38] was 272 nM. The TGI [38] was 1170 nM, the GI50 [39] was 1270 nM and the TGI [39] was 2530 nM. The GI50 [40] was 1760 nM, the TGI [40] was 3150 nM and the GI50 [41] was 405 nM. The TGI [41] was 2010 nM, the GI50 [42] was 213 nM and the TGI [42] was 686 nM. The GI50 [43] was 1520 nM, the TGI [43] was 2860 nM and the GI50 [44] was 1420 nM. For the same compound, the TGI [44] was 2740 nM, the GI50 [45] was 1770 nM and the TGI [45] was 3170 nM. The GI50 [46] was 296 nM, the TGI [46] was 1440 nM and the GI50 [47] was 218 nM. For the same compound, the TGI [47] was 1520 nM, the GI50 [48] was 1190 nM and the TGI [48] was 2430 nM. It also gave a GI50 [49] of 1130 nM, a TGI [49] of 2360 nM and a GI50 [50] of 1120 nM. For the same compound, the TGI [50] was 2330 nM, the GI50 [51] was 218 nM and the TGI [51] was 1720 nM. The GI50 [52] was 1550 nM, the TGI [52] was 2900 nM and the GI50 [53] was 1140 nM. It also gave a TGI [53] of 2370 nM, a GI50 [54] of 1760 nM and a TGI [54] of 3160 nM. The GI50 [55] was 904 nM, the TGI [55] was 2120 nM and the GI50 [56] was 1420 nM. For the same compound, the TGI [56] was 2740 nM, the GI50 [57] was 1160 nM and the TGI [57] was 2400 nM. It also gave a GI50 [58] of 44.1 nM and a TGI [58] of 148 nM.
